Here are results for 26 compounds from publication PMC4552634, “A New Set of Chemical Starting Points with Plasmodium falciparum Transmission-Blocking Potential for Antimalarial Drug Discovery” (PLoS ONE, 2015).

“And” between values parts separate entries of the source, which are not always exact repeats. Equal values may be shown once. Read-outs that look alike come from different tables or passages of the source.

The test system of series [1] is P. falciparum asexual stages. The note with it: asexual stages; TCAMS data; read-out: IC50 asexual; cited from earlier work.
The test system of series [2] is P. falciparum stage V gametocytes. The series can be described thus: Gametocytocidal ATP bioluminescence assay (single point 5 μM and 1 μM, dose-response). Type of series: cell-based, Plasmodium falciparum. The note with it: for Ratio IC50 HepG2/IC50 P. falciparum: IC50 HepG2 divided by IC50 P. falciparum gametocytes.
Procedure: Purified stage IV-V gametocytes were obtained as previously described [10]. Single point ATP bioluminescence assay and dose–response of positive hits was determined in accordance with the previously published protocol [10].
The next series has as its system HepG2 cells. The series can be described thus: Cytotoxicity in HepG2 cells (intracellular ATP, ATPlite, 48 h). Type of series: cell-based, human. The note with it: HepG2 cells; IC50 per ratio column head; unit inferred. In general terms: Cellular ATP, detected with luciferase, serves as a proxy for viable cell number.
Setting [3] is: P. falciparum gametocytes, average, read-out: IC50 Pf Gametocytes average, IC50 (µM) average.
The mark [4] stands for this setting: sexual stages (gametocytes), dose-response, read-out: IC50 sexual.

As to `FC(F)(F)COc1ccc(CNCCCCCCNCc2ccc(OCC(F)(F)F)c3ccccc23)c2ccccc12` [TCMDC-137853], the IC50 (in general, the concentration at which inhibition is half-maximal) was 400 nM in series [1], 0.055 µM in series [2] (setting [3]) and 3000 nM with HepG2 cells. Moreover, the “Ratio IC50 HepG2/IC50 P. falciparum” value in series [2] turned out to be 55.
On to `COc1c(CCNCCCCNCCc2cc(Cl)c3ccccc3c2OC)cc(Cl)c2ccccc12` [TCMDC-137869], for which the IC50 in series [1] is 168 nM; in series [2] (setting [3]), 0.08 µM; in series [2] (setting [4]), 0.083 µM; in the series with HepG2 cells, 3360 nM. Also, the “Ratio IC50 HepG2/IC50 P. falciparum” value in series [2] is listed as 40.
As to `NC(N)=NN=Cc1c2ccccc2c(Cl)c2cc(Cl)ccc12` [TCMDC-137903], the 50% inhibitory concentration (IC50) is 791 nM in series [1], 2.35 µM in series [2] (setting [3]), 2.35 µM in series [2] (setting [4]) and 7500 nM with HepG2 cells. Besides, the “Ratio IC50 HepG2/IC50 P. falciparum” value in series [2] came out at 3.2.
Consider `c1ccc2c(CNCCCN3CCN(CCCNCc4c5ccccc5cc5ccccc45)CC3)c3ccccc3cc2c1` [TCMDC-137909], for which the half-maximal inhibitory concentration (IC50) is 182 nM in series [1], 0.11 µM in series [2] (setting [3]), 0.105 µM in series [2] (setting [4]) and 6280 nM with HepG2 cells. Besides, in series [2], the “Ratio IC50 HepG2/IC50 P. falciparum” value is reported as 60.
For `COc1ccc2ccccc2c1CNCCCCCCNCc1c(OC)ccc2ccccc12` [TCMDC-137915], the IC50 in series [1] was 712 nM; in series [2] (setting [3]) it was 0.25 µM; in series [2] (setting [4]), 0.253 µM; in the series on HepG2 cells, 3590 nM. Further, the “Ratio IC50 HepG2/IC50 P. falciparum” value in series [2] amounted to 14.
As for `CCOc1cc(CNCCCCCCNCc2cc(OCC)c(OCC)c3ccccc23)c2ccccc2c1OCC` [TCMDC-137939], the IC50 is 284 nM in series [1], 0.75 µM in series [2] (setting [3]), 0.745 µM in series [2] (setting [4]) and 2700 nM in the series with HepG2 cells. Also, in series [2], the “Ratio IC50 HepG2/IC50 P. falciparum” value is listed as 3.62.
In the case of `COc1cc2ccccc2cc1CCNCCCCNCCc1cc2ccccc2cc1OC` [TCMDC-137944], the 50% inhibitory concentration (IC50) in series [1] is 403 nM; in series [2] (setting [3]), 0.11 µM; in series [2] (setting [4]), 0.105 µM; in the series on HepG2 cells it was 3390 nM. The “Ratio IC50 HepG2/IC50 P. falciparum” value in series [2] came out at 32.
Regarding `COc1ccc2c(OC)c(CNCCCCCCNCc3ccc4cc(OC)ccc4c3OC)ccc2c1` [TCMDC-137953], the IC50 is 920 nM in series [1], 1.54 µM in series [2] (setting [3]) and 3200 nM in the series on HepG2 cells. Besides, the “Ratio IC50 HepG2/IC50 P. falciparum” value in series [2] is given as 2.
As to `CCCCCCOc1ccc2ccccc2c1CNCCCCCCNCc1c(OCCCCCC)ccc2ccccc12` [TCMDC-137963], the figures for the half-maximal inhibitory concentration (IC50) (in series [1]; in series [2] (setting [3]); in the series with HepG2 cells) were 1060 nM, 0.48 µM and 3300 nM, respectively. The “Ratio IC50 HepG2/IC50 P. falciparum” value in series [2] turned out to be 7.
`CC(C)Oc1ccc2ccccc2c1CNCCCCCCNCc1c(OC(C)C)ccc2ccccc12` [TCMDC-137965]: the IC50 in series [1] is 612 nM; in series [2] (setting [3]) it was 0.14 µM; in the series with HepG2 cells, 2380 nM. Moreover, the “Ratio IC50 HepG2/IC50 P. falciparum” value in series [2] worked out at 17.
Regarding `CCCOc1ccc2ccccc2c1CNCCCCCCNCc1c(OCCC)ccc2ccccc12` [TCMDC-137966], the 50% inhibitory concentration (IC50) in series [1] is 791 nM; in series [2] (setting [3]), 0.34 µM; with HepG2 cells it was 3100 nM. Moreover, the “Ratio IC50 HepG2/IC50 P. falciparum” value in series [2] is on record as 9.
With `CC(C)COc1ccc2ccccc2c1CNCCCCCCNCc1c(OCC(C)C)ccc2ccccc12` [TCMDC-137972], the 50% inhibitory concentration (IC50) in series [1] is 695 nM; in series [2] (setting [3]) it was 0.1 µM; in series [2] (setting [4]), 0.103 µM; with HepG2 cells it was 1880 nM. For the same compound, in series [2], the “Ratio IC50 HepG2/IC50 P. falciparum” value is 18.
As to `CC(C)(C)c1ccc(-c2cc3c(ccc4nc(N)nc(N)c43)[nH]2)cc1` [TCMDC-137977], the IC50 was 113 nM in series [1], 0.55 µM in series [2] (setting [3]) and 3260 nM in the series with HepG2 cells. Also, the “Ratio IC50 HepG2/IC50 P. falciparum” value in series [2] came out at 6.
As for `CC(C)(C)c1ccc(-c2nc3c(ccc4nc(N)nc(N)c43)[nH]2)cc1` [TCMDC-137984], the IC50 is 158 nM in series [1], 0.21 µM in series [2] (setting [3]), 0.205 µM in series [2] (setting [4]) and 3850 nM with HepG2 cells. The “Ratio IC50 HepG2/IC50 P. falciparum” value in series [2] was 19.
Regarding `CC(=O)c1ccc2nc[nH]c(=O)c2c1` [TCMDC-138172], the IC50 in series [1] was 722 nM; in series [2] (setting [3]), 0.4 µM; in the series with HepG2 cells, below 1560 nM. Also, in series [2], the “Ratio IC50 HepG2/IC50 P. falciparum” value was below 3.9.
In the case of `Cc1nc(-c2cccc(Nc3ccnc4cc(-c5nccs5)ccc34)c2)no1` [TCMDC-138334], the IC50 is 322 nM in series [1], 0.3 µM in series [2] (setting [3]) and 7620 nM in the series on HepG2 cells. Also, the “Ratio IC50 HepG2/IC50 P. falciparum” value in series [2] was 25.
On to `Cc1cc(NCCc2ccccc2)nc(/N=C(\N)Nc2ccccc2Cl)n1` [TCMDC-138370], for which the concentration for half-maximal inhibition (IC50) in series [1] was 789 nM; in series [2] (setting [3]), 4.87 µM; in the series on HepG2 cells it was 13600 nM. Moreover, the “Ratio IC50 HepG2/IC50 P. falciparum” value in series [2] was found to be 2.79.
With `CN(C)CCNCc1ccc(-c2ccc3c(Nc4ccc(Oc5ccccc5)cc4)ccnc3c2)o1` [TCMDC-138399], the IC50 was 280 nM in series [1], 0.33 µM in series [2] (setting [3]), 0.325 µM in series [2] (setting [4]) and 7570 nM with HepG2 cells. Moreover, the “Ratio IC50 HepG2/IC50 P. falciparum” value in series [2] is 23.
In the case of `CN(C)CCN(C)Cc1cccc(-c2ccc3c(Nc4ccc(F)cc4Cl)ccnc3c2)c1` [TCMDC-138416], the IC50 in series [1] is 110 nM; in series [2] (setting [3]), 0.48 µM; with HepG2 cells, 3600 nM. For the same compound, the “Ratio IC50 HepG2/IC50 P. falciparum” value in series [2] is reported as 7.5.
With `C=CCC1OC(=O)c2cc(OC)cc(OC)c21` (stereo not drawn) [TCMDC-138677], the concentration for half-maximal inhibition (IC50) was 343 nM in series [1], 0.6 µM in series [2] (setting [3]) and below 1560 nM in the series with HepG2 cells. Besides, the “Ratio IC50 HepG2/IC50 P. falciparum” value in series [2] is given as below 2.6.
For the compound `C=C(C)Cn1cc(C2CCN(CCN3CCC(CNC(=O)c4ccc(-c5ccc(C#N)cc5)cc4)CC3)CC2)c2ccccc21` [TCMDC-138854], the IC50 in series [1] is 433 nM; in series [2] (setting [3]), 2.93 µM; in the series with HepG2 cells, 3700 nM. For the same compound, the “Ratio IC50 HepG2/IC50 P. falciparum” value in series [2] is recorded as 1.26.
As for `COc1c(C2CCN(CCN3CCC(CNC(=O)c4ccc(-c5ccc(C#N)cc5)cc4)CC3)CC2)ccc2c1CCCC2` [TCMDC-138859], the half-maximal inhibitory concentration (IC50) in series [1] is 455 nM; in series [2] (setting [3]) it was 1.17 µM; in series [2] (setting [4]) it was 1.17 µM; in the series with HepG2 cells, 3300 nM. The “Ratio IC50 HepG2/IC50 P. falciparum” value in series [2] was 2.83.
On to `CC1(C)CC(NCCCCCCCOc2ccc(OCc3ccccc3)cc2)CC(C)(C)N1` [TCMDC-138958], for which the IC50 in series [1] was 827 nM; in series [2] (setting [3]), 0.68 µM; in the series on HepG2 cells, 3000 nM. In addition, in series [2], the “Ratio IC50 HepG2/IC50 P. falciparum” value stood at 4.41.
On to `Clc1ccc(OCCC2CCN(CCCCCCCN3CCC(CCOc4ccc(Cl)c(Cl)c4)CC3)CC2)cc1Cl` [TCMDC-138967], for which the 50% inhibitory concentration (IC50) in series [1] is 624 nM; in series [2] (setting [3]) it was 0.7 µM and 0.47 µM; with HepG2 cells, 4400 nM and 2600 nM. The “Ratio IC50 HepG2/IC50 P. falciparum” value in series [2] was 6 and 5.59.
`O=C(NCCCCN1CCC(c2c[nH]c3ccc(-c4ccccc4)cc23)CC1)c1ccc(-c2ccccc2)cc1` [TCMDC-139064]: the IC50 in series [1] was 985 nM; in series [2] (setting [3]) it was 1.83 µM; in the series on HepG2 cells, 9400 nM. In addition, the “Ratio IC50 HepG2/IC50 P. falciparum” value in series [2] stood at 5.
On to `O=C(/C=C/c1ccc(Cl)c(Cl)c1)NCCCCCN1CCCC(CNS(=O)(=O)c2cccc(C(F)(F)F)c2)C1` (stereo not drawn) [TCMDC-139597], for which the IC50 in series [1] is 950 nM; in series [2] (setting [3]), 8.63 µM; in the series on HepG2 cells, 3800 nM. Moreover, the “Ratio IC50 HepG2/IC50 P. falciparum” value in series [2] is on record as 0.4.
